{"source": "ChEMBL document CHEMBL1153550", "about": "“In vitro study of Candida tropicalis isolates exhibiting paradoxical growth in the presence of high concentrations of caspofungin” (2007)", "key": {"[1]": {"tested_on": "Candida tropicalis", "assay": "Antifungal activity against > 2 x 10^7 CFU/ml Candida tropicalis isolate 10 in antibiotic medium 3 assessed as partial growth after 24 hrs by broth microdilution method", "assay_type": "functional, organism-based"}, "[2]": {"tested_on": "Candida tropicalis", "assay": "Antifungal activity against > 2 x 10^7 CFU/ml Candida tropicalis isolate 8 in antibiotic medium 3 assessed as partial growth after 24 hrs by broth microdilution method", "assay_type": "functional, organism-based"}, "[3]": {"tested_on": "Candida tropicalis", "assay": "Antifungal activity against > 2 x 10^7 CFU/ml Candida tropicalis isolate 4 in RPMI 1640 medium assessed as partial growth after 24 hrs by broth microdilution method", "assay_type": "functional, organism-based"}, "[4]": {"tested_on": "Candida tropicalis", "assay": "Antifungal activity against 2 x 10^7 CFU/ml Candida tropicalis isolate 15 in antibiotic medium 3 after 24 hrs by broth microdilution method", "assay_type": "functional", "settings": "isolate 15, 24 h"}, "[5]": {"tested_on": "Candida tropicalis", "assay": "Antifungal activity against 2 x 10^7 CFU/ml Candida tropicalis isolate 12 in antibiotic medium 3 after 24 hrs by broth microdilution method", "assay_type": "functional", "settings": "isolate 12, 24 h"}, "[6]": {"tested_on": "Candida tropicalis", "assay": "Antifungal activity against 2 x 10^7 CFU/ml Candida tropicalis isolate 10 in antibiotic medium 3 after 24 hrs by broth microdilution method", "assay_type": "functional", "settings": "isolate 10, 24 h"}, "[7]": {"tested_on": "Candida tropicalis", "assay": "Antifungal activity against 2 x 10^7 CFU/ml Candida tropicalis isolate 9 in antibiotic medium 3 after 24 hrs by broth microdilution method", "assay_type": "functional", "settings": "isolate 9, 24 h"}, "[8]": {"tested_on": "Candida tropicalis", "assay": "Antifungal activity against 2 x 10^7 CFU/ml Candida tropicalis isolate 7 in antibiotic medium 3 after 24 hrs by broth microdilution method", "assay_type": "functional", "settings": "isolate 7, 24 h"}, "[9]": {"tested_on": "Candida tropicalis", "assay": "Antifungal activity against 2 x 10^7 CFU/ml Candida tropicalis isolate 6 in antibiotic medium 3 after 24 hrs by broth microdilution method", "assay_type": "functional", "settings": "isolate 6, 24 h"}, "[10]": {"tested_on": "Candida tropicalis", "assay": "Antifungal activity against 2 x 10^7 CFU/ml Candida tropicalis isolate 3 in antibiotic medium 3 after 24 hrs by broth microdilution method", "assay_type": "functional", "settings": "isolate 3, 24 h"}, "[11]": {"tested_on": "Candida tropicalis", "assay": "Antifungal activity against 2 x 10^7 CFU/ml Candida tropicalis isolate 12 in RPMI 1640 medium after 24 hrs by broth microdilution method", "assay_type": "functional", "settings": "isolate 12, 24 h"}, "[12]": {"tested_on": "Candida tropicalis", "assay": "Antifungal activity against 10^5 CFU/ml Candida tropicalis isolate 1 in RPMI 1640 medium at 12.5 ug/ml treated for 48 hrs followed by incubation in drug free medium for 48 hrs by broth microdilution method", "assay_type": "functional, organism-based"}, "[13]": {"tested_on": "Candida tropicalis", "assay": "Antifungal activity against 10^5 CFU/ml Candida tropicalis isolate 7 in RPMI 1640 medium at 12.5 ug/ml treated for 48 hrs followed by incubation in drug free medium for 48 hrs by broth microdilution method", "assay_type": "functional, organism-based"}, "[14]": {"tested_on": "Candida tropicalis", "assay": "Antifungal activity against 10^5 CFU/ml Candida tropicalis isolate 12 in RPMI 1640 medium at 12.5 ug/ml treated for 48 hrs followed by incubation in drug free medium for 48 hrs by broth microdilution method", "assay_type": "functional, organism-based"}, "[15]": {"tested_on": "Candida tropicalis", "assay": "Antifungal activity against 10^5 CFU/ml Candida tropicalis isolate 13 in RPMI 1640 medium at 12.5 ug/ml treated for 48 hrs followed by incubation in drug free medium for 48 hrs by broth microdilution method", "assay_type": "functional, organism-based"}, "[16]": {"tested_on": "Candida tropicalis", "assay": "Antifungal activity against Candida tropicalis ATCC 750 in RPMI 1640 medium assessed as paradoxical growth at 6.25 ug/ml after 24 hrs by broth microdilution method", "assay_type": "functional, organism-based"}, "[17]": {"tested_on": "Candida tropicalis", "assay": "Antifungal activity against Candida tropicalis isolate 5 in RPMI 1640 medium assessed as paradoxical growth at 6.25 ug/ml after 48 hrs by broth microdilution method", "assay_type": "functional, organism-based"}, "[18]": {"tested_on": "Candida tropicalis", "assay": "Antifungal activity against Candida tropicalis ATCC 750 in RPMI 1640 medium assessed as paradoxical growth at 6.25 ug/ml after 48 hrs by broth microdilution method", "assay_type": "functional, organism-based"}, "[19]": {"tested_on": "Candida tropicalis", "assay": "Antifungal activity against Candida tropicalis isolate 5 in RPMI 1640 medium assessed as paradoxical growth at 12.5 ug/ml after 24 hrs by broth microdilution method", "assay_type": "functional, organism-based"}, "[20]": {"tested_on": "Candida tropicalis", "assay": "Antifungal activity against Candida tropicalis isolate 4 in RPMI 1640 medium assessed as paradoxical growth at 12.5 ug/ml after 48 hrs by broth microdilution method", "assay_type": "functional, organism-based"}, "[21]": {"tested_on": "Candida tropicalis", "assay": "Antifungal activity against Candida tropicalis isolate 15 in RPMI 1640 medium assessed as paradoxical growth at 12.5 ug/ml after 48 hrs by broth microdilution method", "assay_type": "functional, organism-based"}, "[22]": {"tested_on": "Candida tropicalis", "assay": "Antifungal activity against Candida tropicalis clinical isolate in antibiotic medium 3 assessed as paradoxical growth-related change in CFU treated for 24 hrs by time-kill assay", "assay_type": "functional"}, "[23]": {"tested_on": "Candida tropicalis", "assay": "Fungistatic activity against Candida tropicalis clinical isolates at 12.5 ug/ml after 24 to 48 hrs by time-kill assay", "assay_type": "functional, organism-based"}, "[24]": {"tested_on": "Candida tropicalis", "assay": "Antifungal activity against 10^5 CFU/ml Candida tropicalis ATCC 750 in RPMI 1640 medium at 0.4 to 12.5 ug/ml treated for 24 hrs followed by incubation in drug free medium for 48 hrs by broth microdilution method", "assay_type": "functional, organism-based"}, "[25]": {"tested_on": "Candida tropicalis", "assay": "Antifungal activity against 10^5 CFU/ml Candida tropicalis isolate 4 in RPMI 1640 medium at 0.4 to 12.5 ug/ml treated for 24 hrs followed by incubation in drug free medium for 48 hrs by broth microdilution method", "assay_type": "functional, organism-based"}, "[26]": {"tested_on": "Candida tropicalis", "assay": "Antifungal activity against 10^5 CFU/ml Candida tropicalis isolate 5 in RPMI 1640 medium at =< 0.09 ug/ml after 24 hrs followed by incubation in drug free medium for 48 hrs by broth microdilution method", "assay_type": "functional, organism-based"}, "[27]": {"tested_on": "Candida tropicalis", "assay": "Antifungal activity against 10^5 CFU/ml Candida tropicalis isolate 4 in RPMI 1640 medium at =< 0.09 ug/ml after 24 hrs followed by incubation in drug free medium for 48 hrs by broth microdilution method", "assay_type": "functional, organism-based"}, "[28]": {"tested_on": "Candida tropicalis", "assay": "Antifungal activity against 10^5 CFU/ml Candida tropicalis isolate 6 in antibiotic medium 3 at 12.5 ug/ml treated for 24 hrs followed by incubation in drug free medium for 48 hrs by broth microdilution method", "assay_type": "functional, organism-based"}, "[29]": {"tested_on": "Candida tropicalis", "assay": "Antifungal activity against 10^5 CFU/ml Candida tropicalis isolate 15 in RPMI 1640 medium at 12.5 ug/ml treated for 24 hrs followed by incubation in drug free medium for 48 hrs by broth microdilution method", "assay_type": "functional, organism-based"}, "[30]": {"tested_on": "Candida tropicalis", "assay": "Antifungal activity against 10^5 CFU/ml Candida tropicalis isolate 14 in RPMI 1640 medium at 12.5 ug/ml treated for 24 hrs followed by incubation in drug free medium for 48 hrs by broth microdilution method", "assay_type": "functional, organism-based"}, "[31]": {"tested_on": "Candida tropicalis", "assay": "Antifungal activity against 10^5 CFU/ml Candida tropicalis isolate 10 in RPMI 1640 medium at 12.5 ug/ml treated for 24 hrs followed by incubation in drug free medium for 48 hrs by broth microdilution method", "assay_type": "functional, organism-based"}, "[32]": {"tested_on": "Candida tropicalis", "assay": "Antifungal activity against 10^5 CFU/ml Candida tropicalis isolate 4 in RPMI 1640 medium at 12.5 ug/ml treated for 24 hrs followed by incubation in drug free medium for 48 hrs by broth microdilution method", "assay_type": "functional, organism-based"}, "[33]": {"tested_on": "Candida tropicalis", "assay": "Antifungal activity against 10^5 CFU/ml Candida tropicalis isolate 3 in RPMI 1640 medium at 12.5 ug/ml treated for 24 hrs followed by incubation in drug free medium for 48 hrs by broth microdilution method", "assay_type": "functional, organism-based"}, "[34]": {"tested_on": "Candida tropicalis", "assay": "Antifungal activity against 10^5 CFU/ml Candida tropicalis isolate 2 in RPMI 1640 medium at 12.5 ug/ml treated for 24 hrs followed by incubation in drug free medium for 48 hrs by broth microdilution method", "assay_type": "functional, organism-based"}, "[35]": {"tested_on": "Candida tropicalis", "assay": "Antifungal activity against > 2 x 10^7 CFU/ml Candida tropicalis isolate 12 in antibiotic medium 3 assessed as partial growth after 24 hrs by broth microdilution method", "assay_type": "functional, organism-based"}}, "note": "Active and inactive are the calls of the source. No cut-off for these calls is given here.", "data": [{"smiles": "CC[C@H](C)C[C@H](C)CCCCCCCCC(=O)N[C@H]1C[C@@H](O)[C@@H](NCCN)NC(=O)[C@@H]2[C@@H](O)CCN2C(=O)[C@H]([C@H](O)CCN)NC(=O)[C@H]([C@H](O)[C@@H](O)c2ccc(O)cc2)NC(=O)[C@@H]2C[C@@H](O)CN2C(=O)[C@H]([C@@H](C)O)NC1=O", "note": "[CASPOFUNGIN]", "values": [{"measurement": "Activity", "setting": "[1]", "result": "inactive"}, {"measurement": "Activity", "setting": "[2]", "result": "inactive"}, {"measurement": "Activity", "setting": "[3]", "result": "inactive"}, {"measurement": "MIC", "setting": "[4]", "result": 0.024, "unit": "µg/mL"}, {"measurement": "MIC", "setting": "[5]", "result": 0.024, "unit": "µg/mL"}, {"measurement": "MIC", "setting": "[6]", "result": 0.024, "unit": "µg/mL"}, {"measurement": "MIC", "setting": "[7]", "result": 0.024, "unit": "µg/mL"}, {"measurement": "MIC", "setting": "[8]", "result": 0.024, "unit": "µg/mL"}, {"measurement": "MIC", "setting": "[9]", "result": 0.024, "unit": "µg/mL"}, {"measurement": "MIC", "setting": "[10]", "result": 0.024, "unit": "µg/mL"}, {"measurement": "MIC", "setting": "[11]", "result": 0.024, "unit": "µg/mL"}, {"measurement": "Activity", "setting": "[12]", "result": "inactive"}, {"measurement": "Activity", "setting": "[13]", "result": "Active"}, {"measurement": "Activity", "setting": "[14]", "result": "inactive"}, {"measurement": "Activity", "setting": "[15]", "result": "inactive"}, {"measurement": "Activity", "setting": "[16]", "result": "inactive"}, {"measurement": "Activity", "setting": "[17]", "result": "inactive"}, {"measurement": "Activity", "setting": "[18]", "result": "Active"}, {"measurement": "Activity", "setting": "[19]", "result": "inactive"}, {"measurement": "Activity", "setting": "[20]", "result": "inactive"}, {"measurement": "Activity", "setting": "[21]", "result": "Active"}, {"measurement": "Activity", "setting": "[22]", "result": 0.36, "unit": "log10CFU/ml"}, {"measurement": "Activity", "setting": "[23]", "result": "Active"}, {"measurement": "Activity", "setting": "[24]", "result": "inactive"}, {"measurement": "Activity", "setting": "[25]", "result": "inactive"}, {"measurement": "Activity", "setting": "[26]", "result": "Active"}, {"measurement": "Activity", "setting": "[27]", "result": "Active"}, {"measurement": "Activity", "setting": "[28]", "result": "inactive"}, {"measurement": "Activity", "setting": "[29]", "result": "inactive"}, {"measurement": "Activity", "setting": "[30]", "result": "inactive"}, {"measurement": "Activity", "setting": "[31]", "result": "inactive"}, {"measurement": "Activity", "setting": "[32]", "result": "inactive"}, {"measurement": "Activity", "setting": "[33]", "result": "inactive"}, {"measurement": "Activity", "setting": "[34]", "result": "inactive"}, {"measurement": "Activity", "setting": "[35]", "result": "inactive"}]}]}
